Laboratory results as given in patent US8404435B2, “Enigma-Mdm2 interaction and uses thereof” (Korea Research Institute of Bioscience and Biotechnology, priority 2009, dated 2013).

What was measured:
[1] = system: MEF (mouse embryonic fibroblast); assay: Serum response of SRF-Enigma-Mdm2 pathway in MEF; assay type: cell-based
Procedure: (§1) The present inventors identified serum response by using MRC5 (human normal fibroblast), MEF (mouse embryonic fibroblast) to identify presence of SRF-Enigma-Mdm2 pathway in normal cells. In case of MRC5, activity of SRF-Enigma-Mdm2 pathway by serum was inhibited when siSRF (10, 15 μg) is induced or PD98059 is present; in case of MEF, activity of SRF-Enigma-Mdm2 pathway was inhibited by PD98059 (FIGS. 12A and 12C). Thus, an amount of protein by transcriptional activity increased for SRF, Enigma, transcript level for Mdm2 (p1-Mdm2) and p53 was unvaried. However, transcript level for p2-Mdm2 changed dependently on an amount of p53 expression (FIGS. 12B and 12D).

[2] = system: Mdm2+/+p53-/- MEF cell lines; assay: HGF effect on SRF-Enigma-Mdm2 pathway with or without PD98059; assay type: cell-based, mouse; conditions: Ad-p53 or Ad-LacZ induced
Source text: Since an MAP kinase is known to be associated with SRF expression by cell growth factor (J Physiol Pharmacol 53, 147-157, 53, 2002), the present inventors hypothesized that an MAP kinase is associated with regulation of SRF-Enigma-Mdm2 pathway, and tested by using PD98059, MAP kinase-specific inhibitor. The present inventors treated the cells with HGF and with or without PD98059 after inducing Ad-p53 or Ad-LacZ into Mdm2^+/+p53^−/− MEF cell lines. As the result, PD98059 abolished the HGF effect on SRF-Enigma-Mdm2 pathway (FIG. 10E).

[3] = system: MRC5 (human normal fibroblast); assay: Serum response of SRF-Enigma-Mdm2 pathway in MRC5; assay type: cell-based
Procedure: as §1

mouse liver = assay: SRF-Enigma-Mdm2-p53 pathway in mouse liver, Western blotting; assay type: in vivo, mice (Balb/c); conditions: HGF 100 μg/kg into tail vein, livers removed time-wise
Procedure: The present inventors identified a change in SRF-Enigma-Mdm2-p53 by a Western blotting after injecting each of Ad-p53 or Ad-LacZ virus (5×10^8 pfu) into tail vein of mice (Balb/c, Female, Taconic) and after 24 hours injecting HGF (100 μg/kg) into tail vein of mice again, removing livers time-wise. As the result, HGF induced protein expression by transcriptionally activating SRF, Enigma was induced by SRF at transcription level, and an amount of protein increased.
The present inventors, to observe a change in Mdm2-p53 according to a direct change in an amount of Enigma expression, identified an amount of each protein by a Western blotting after injecting or not injecting Ad-p53 into tail vein of mice (Balb/c, Female, Taconic) and after 24 hours injecting Ad-F-Enigma, Ad-LacZ, PBS into tail vein of mice again, removing livers after 48 hours. Furthermore, after injecting Ad-siEnigma, Ad-siControl and PBS into tail vein and injecting HGF into tail vein 8 hours before liver removal.

Enigma promoter = assay: SRE-Luc / ΔSRE-Luc Enigma promoter reporter assay; assay type: cell-based; conditions: HLK3; 20, 40 ng/ml, 6 hours
Procedure: After Enigma-Luc was induced into an HLK3 cell line (0.5 μg), was cultured in DMEM with 0.1% […] for 24 hours, and was cultured with 5% and 20% FBS added for 6 hours again, luciferase activity of collected cells were measured. As the result, activity of Enigma-Luc increased dependently on the concentration of serum (FIG. 9B).
After SRE-Luc (0.5 μg), ΔSRE-Luc (0.5 μg), which were produced to test SRF dependence of Enigma expression, were induced into an HLK3 cell line, the cells were cultured in DMEM with 0.1% FBS for 24 hours, and were cultured with 5% and 20% FBS, FGF (20, 40 ng/ml), or HGF (20, 40 ng/ml) added for 6 hours again, luciferase activity of collected cells were measured.

HLK3 cell line = assay: HGF effect on SRF-Enigma-Mdm2-p53 pathway, Western blotting; assay type: cell-based; conditions: HGF 40, 60 ng/ml, 4 hours before cell collection
Procedure: The present inventors investigated whether SRF-Enigma-Mdm2 pathway is also regulated by HGF. The present inventors, to show specific relevance of SRF, Enigma, identified changes in each protein by a Western blotting after inducing 10 μg each of siEnigma, siSRF into an HLK3 cell line, culturing them in a condition of removing serum, and processing each with HGF (40, 60 ng/ml) 4 hours before cell collection. […] Furthermore, the present inventors observed a change in Enigma and Mdm2 after directly inducing F-SRF into an HLK3 cell line concentration-wise (5, 10 μg).

Mdm2 [4] = biological target: T1, Mdm2 (Homo sapiens, UniProt Q00987); assay: In vitro ubiquitination assay; assay type: biochemical
T1 construct: His; made in house; host or cells: E. coli
T1 sequence (Q00987 whole entry): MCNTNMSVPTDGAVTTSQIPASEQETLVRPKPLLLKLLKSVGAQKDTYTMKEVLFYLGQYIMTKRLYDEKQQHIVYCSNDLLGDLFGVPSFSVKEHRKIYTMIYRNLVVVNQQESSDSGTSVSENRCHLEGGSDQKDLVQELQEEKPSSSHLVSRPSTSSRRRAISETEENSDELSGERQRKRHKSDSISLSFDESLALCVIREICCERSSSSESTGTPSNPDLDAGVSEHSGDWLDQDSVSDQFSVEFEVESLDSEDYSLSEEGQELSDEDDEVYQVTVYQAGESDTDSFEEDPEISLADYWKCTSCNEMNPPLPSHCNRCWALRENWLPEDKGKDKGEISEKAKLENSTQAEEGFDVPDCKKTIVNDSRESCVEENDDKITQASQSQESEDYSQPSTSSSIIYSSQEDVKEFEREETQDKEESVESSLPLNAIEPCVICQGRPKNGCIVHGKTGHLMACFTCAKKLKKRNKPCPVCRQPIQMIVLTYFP
Procedure: In vitro ubiquitination assay was performed to test self-ubiquitination of Mdm2 by Enigma's binding. After ubiquitin reaction mixture (including E1, E2, His-Ub, ATP) was added and reacted to His-Mdm2 protein (0.5 μg), His-Mdm2 (C464A: 0.5 μg), Enigma protein (0.5, 1 μg), F-EniΔLIM3 (1 μg), a change in self-ubiquitination and binding proteins for Mdm2 were identified by an IP/IB method. As the result, self-ubiquitination of Mdm2 was inhibited by F-Enigma, which binds to Mdm2, and Enigma had no effect on an Mdm2 (C464A) variant where 464-cysteine on the Mdm2 RING finger region was substituted by alanine (FIG. 7C). Also, Enigma stimulated Mdm2-mediated p53 ubiquitination in vitro (FIG. 7D). Thus, Enigma was identified as a determining factor that shifts specificity of Mdm2 E3 ligase from itself toward p53.
PCAF (p300-CBP-associated factor) induces the ubiquitination of Mdm2 (Nat Cell Biol 9, 331-338, 2007). When proteins purified from bacteria and described in FIG. 5-1a were used to perform an in-vitro ubiquitin experiment, Enigma had no effect on Mdm2 ubiquitination by PCAF (FIG. 8A). This event was also tested in an Mdm2^−/−p53^−/− MEF cell line (FIG. 8B).

Mdm2 [5] = biological target: T1, Mdm2; assay: In vitro binding assay (GST pull-down / IP) of purified proteins; conditions: proteins purified from E. coli
Procedure: The present inventors, to test interaction between Enigma and Mdm2, generated mutants (F-PDZ, F-PDZ-LIM1, F-LIM) of Enigma in pCMVtaq2B vector by a common PCR cloning method, and produced mutants (GST-1-100, GST-101-491, GST-201-491, GST-301-491) of Mdm2 in pEBG vector by a PCR cloning method. His-Mdm2, Enigma, GST-p53, EniΔLIM3 proteins were respectively separated and purified from E. coli to identify the interaction in vitro.
In vitro binding assay was performed to identify directly in-vitro interaction between respective proteins (1 μg His-Mdm2, 0.5 μg Enigma, 1 μg GST-p53) which are separated and purified from E. coli. Binding between respective proteins were induced after mixing, the bindings between proteins were identified by a GST pull-down and an IP method.
A binding site was determined by using respective mutants produced from Enigma and Mdm2. First, each mutant vector (5 μg) was introduced into a 293 cell line where Hag-Enigma is constitutively expressed, and afterwards binding was identified by GST pull-down and by a Western blotting with a Hag antibody (FIG. 5D). Also, each Enigma mutant (5 μg) and GST-Mdm2 expression vector (5 μg) were introduced into a 293T cell line (ATCC) by a calcium phosphate method. At 24 hours, the cells were collected, and binding was identified by IP with a Flag antibody and by a Western blotting with a GST antibody (FIG. 5E). […]

COc1cccc(-c2cc(=O)c3ccccc3o2)c1N [PD98059]
activity of SRF-Enigma-Mdm2 pathway [1]: inhibited
HGF effect on SRF-Enigma-Mdm2 pathway [2]: abolished
activity of SRF-Enigma-Mdm2 pathway by serum [3]: inhibited

HGF: growth factor
amount of protein of Mdm2 and p53 in liver (mouse liver): the amount of protein in Mdm2 increased and simultaneously that of p53 decreased
reporter activity of SRE-Luc but not ΔSRE-Luc (Enigma promoter): increased dependently on the concentration of growth factor
changes in SRF, Enigma, Mdm2, p53 protein (HLK3 cell line): an increase in SRF-Enigma-Mdm2 and a SRF- or Enigma-dependent decrease in p53

Enigma: Enigma protein separated and purified from E. coli
Mdm2-mediated p53 ubiquitination in vitro (Mdm2 [4]): stimulated
Mdm2 ubiquitination by PCAF in vitro (Mdm2 [4]): no effect
self-ubiquitination of Mdm2 in vitro (Mdm2 [4]; Enigma protein 0.5, 1 μg, His-Mdm2 0.5 μg): inhibited
binding to Mdm2 in vitro (Mdm2 [5]): bound to Mdm2 directly
